The test system of the test is Notch signaling (human Notch1 receptor, hNotch1ΔE). In words: Notch reporter assay (dual luciferase, HeLa cells transfected with hNotch1ΔE). Format: cell-based. Particulars: 10 μM. From the text: The activation level of Notch signaling can be quantified in vitro reliably by measuring the expression levels of Notch specific target genes. This can be accomplished by the quantification of corresponding mRNA or protein of a particular Notch target gene. Alternatively, cells can be genetically modified to carry a luciferase gene as an artificial Notch target gene, which is expressed in dependence of Notch activity. In this setting, Notch signaling levels can be quantified by measuring the luciferase-derived bioluminescence values.
An according Notch-reporter assay, i.e. a luciferase-based luminescence readout, was used here to quantify the ability of the claimed compounds to augment Notch signaling in a cellular system. […] After 24 hours of transfection, the transfected cells were carefully detached from the dish using 0.5 mM EDTA in PBS and seeded into 96-well plates suitable for luminescence readouts (CORNING, #3610) at 10,000 cells per well. […] Directly after the lysis, first the Firefly and then the Renilla luciferase values were measured consecutively from the same well with a luminescence reader immediately after applying 15 μL per well each of the corresponding enzyme substrates needed to create the luminescence signals (Promega, Dual-Luciferase® Reporter Assay System, #E1910). […]

Consider two molecules from patent publication US20240140895A1, “NOVEL AROMATIC MOLECULES” (XENIOPRO GmbH, priority 2018, published 2024).

Consider `C[C@H](NC(=O)Cc1cc(F)cc(F)c1)C(=O)N[C@H](C(=O)OC(C)(C)C)c1ccccc1` [DAPT], for which the “Activity Range: weighted arithmetic mean (AVEw) of double-normalized Notch-reporter luminescence, relative to DMSO basis level 1.0” value is 0.1 ± 0.0.
For `O=Cc1ccc(Oc2ccc(C3CCCCC3)cc2)cc1` [XPA-0020], the “Activity Range: weighted arithmetic mean (AVEw) of double-normalized Notch-reporter luminescence, relative to DMSO basis level 1.0” value was 2.0 ≤ AVEw.
